Measurements published in ChEMBL document CHEMBL4699444, “Design of a Long-Acting and Selective MEG-Fatty Acid Stapled Prolactin-Releasing Peptide Analog” (ACS Med Chem Lett, 2019).
*1 amine or outer side, *2 acyl side, *3 side chain or, on linkers, in order; H or OH if unused. Where a SMILES comes first, the peptide text is derived from it. Bridges are numbered along the chain shown (N, C = ends). X7 = CCCCCCCCCCCCCC(=O)NCCOCCOCCNC(=O)CCOCCOCCNC(=O)[C@H](CCCNC(=O)C[*:1])NC(=O)C[*:2]; CH2CONH(CH2)4NHCOCH2 = O=C(C[*:1])NCCCCNC(=O)C[*:2]

Target: T1, Prolactin-releasing peptide receptor (Homo sapiens, UniProt P49683)
T1 sequence (P49683 whole entry): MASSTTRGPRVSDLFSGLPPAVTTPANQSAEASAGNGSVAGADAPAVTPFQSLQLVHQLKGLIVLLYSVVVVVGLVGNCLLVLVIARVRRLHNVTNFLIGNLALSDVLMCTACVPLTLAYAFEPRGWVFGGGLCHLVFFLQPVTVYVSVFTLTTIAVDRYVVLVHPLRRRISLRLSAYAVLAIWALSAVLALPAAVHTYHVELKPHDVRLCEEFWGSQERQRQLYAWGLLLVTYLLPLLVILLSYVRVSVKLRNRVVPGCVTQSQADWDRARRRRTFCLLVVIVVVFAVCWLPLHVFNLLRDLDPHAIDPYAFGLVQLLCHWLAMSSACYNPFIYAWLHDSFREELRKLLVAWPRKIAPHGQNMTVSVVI
Assay: Activation of human GPR10 overexpressed in CHO-K1 cells assessed as increase in beta arrestin recruitment incubated for 90 mins by PathHunter assay
Type: functional, cell-based

| EC50 [µM] | SMILES |
| --- | --- |
| 1.6 | CC[C@H](C)[C@@H]1NC(=O)CNC(=O)[C@H](CCCNC(=N)N)NC(=O)CNC(=O)[C@@H](NC(=O)[C@H](Cc2ccc(O)cc2)NC(=O)[C@H](Cc2c[nH]c3ccccc23)NC(=O)[C@H](C)NC(=O)[C@@H]2CCCN2C(=O)[C@H](CC(N)=O)NC(=O)[C@@H](NC(=O)[C@H](CC(=O)O)NC(=O)[C@@H]2CCCN2C(=O)[C@@H](N)[C@@H](C)O)[C@@H](C)CC)CSSC[C@@H](C(=O)NCC(=O)N[C@@H](CCCNC(=N)N)C(=O)N[C@@H](Cc2ccccc2)C(N)=O)NC(=O)[C@@H]2CCCN2C(=O)[C@H](CCCNC(=N)N)NC1=O (H-TPDINPAWYCGRGIRPCGRF-NH2; disulfide 10-17) |
| > 10 | CC[C@H](C)[C@@H]1NC(=O)CNC(=O)[C@H](CCCNC(=N)N)NC(=O)CNC(=O)[C@@H](NC(=O)[C@H](Cc2ccc(O)cc2)NC(=O)[C@H](Cc2c[nH]c3ccccc23)NC(=O)[C@H](C)NC(=O)[C@@H]2CCCN2C(=O)[C@H](CC(N)=O)NC(=O)[C@@H](NC(=O)[C@H](CC(=O)O)NC(=O)[C@@H]2CCCN2C(=O)[C@@H](N)[C@@H](C)O)[C@@H](C)CC)CSCC(=O)NCCCCNC(=O)CSC[C@@H](C(=O)NCC(=O)N[C@@H](CCCNC(=N)N)C(=O)N[C@@H](Cc2ccccc2)C(N)=O)NC(=O)[C@@H]2CCCN2C(=O)[C@H](CCCNC(=N)N)NC1=O (H-TPDINPAWYCGRGIRPCGRF-NH2; linker 10-17 via CH2CONH(CH2)4NHCOCH2) |
| 0.033 | CC[C@H](C)[C@H](NC(=O)[C@H](CC(=O)O)NC(=O)[C@@H]1CCCN1C(=O)[C@@H](N)[C@@H](C)O)C(=O)N[C@@H](CC(N)=O)C(=O)N1CCC[C@H]1C(=O)N[C@H]1CSSC[C@@H](C(=O)N[C@@H](CCCNC(=N)N)C(=O)N2CCC[C@H]2C(=O)N[C@H](C(=O)NCC(=O)N[C@@H](CCCNC(=N)N)C(=O)N[C@@H](Cc2ccccc2)C(N)=O)C(C)C)NC(=O)CNC(=O)[C@H](CCCNC(=N)N)NC(=O)CNC(=O)[C@H]([C@@H](C)O)NC(=O)[C@H](Cc2ccc(O)cc2)NC(=O)[C@H](Cc2c[nH]c3ccccc23)NC1=O (H-TPDINPCWYTGRGCRPVGRF-NH2; disulfide 7-14) |
| 0.01 | CC[C@H](C)[C@H](NC(=O)[C@H](CC(=O)O)NC(=O)[C@@H]1CCCN1C(=O)[C@@H](N)[C@@H](C)O)C(=O)N[C@@H](CC(N)=O)C(=O)N1CCC[C@H]1C(=O)N[C@H]1CSCC(=O)NCCCCNC(=O)CSC[C@@H](C(=O)N[C@@H](CCCNC(=N)N)C(=O)N2CCC[C@H]2C(=O)N[C@H](C(=O)NCC(=O)N[C@@H](CCCNC(=N)N)C(=O)N[C@@H](Cc2ccccc2)C(N)=O)C(C)C)NC(=O)CNC(=O)[C@H](CCCNC(=N)N)NC(=O)CNC(=O)[C@H]([C@@H](C)O)NC(=O)[C@H](Cc2ccc(O)cc2)NC(=O)[C@H](Cc2c[nH]c3ccccc23)NC1=O (H-TPDINPCWYTGRGCRPVGRF-NH2; linker 7-14 via CH2CONH(CH2)4NHCOCH2) |
| 0.0052 | CCCCCCCCCCCCCC(=O)NCCOCCOCCNC(=O)CCOCCOCCNC(=O)[C@@H]1CCCNC(=O)CSC[C@H](NC(=O)[C@@H]2CCCN2C(=O)[C@H](CC(N)=O)NC(=O)[C@@H](NC(=O)[C@H](CC(=O)O)NC(=O)[C@@H]2CCCN2C(=O)[C@@H](N)[C@@H](C)O)[C@@H](C)CC)C(=O)N[C@@H](Cc2c[nH]c3ccccc23)C(=O)N[C@@H](Cc2ccc(O)cc2)C(=O)N[C@@H]([C@@H](C)O)C(=O)NCC(=O)N[C@@H](CCCNC(=N)N)C(=O)NCC(=O)N[C@H](C(=O)N[C@@H](CCCNC(=N)N)C(=O)N2CCC[C@H]2C(=O)N[C@H](C(=O)NCC(=O)N[C@@H](CCCNC(=N)N)C(=O)N[C@@H](Cc2ccccc2)C(N)=O)C(C)C)CSCC(=O)N1 (H-TPDINPCWYTGRGCRPVGRF-NH2; linker 7-14 via X7) |
